In publication PMC10303900, “Discovery of a New Chalcone-Trimethoxycinnamide Hybrid with Antimitotic Effect: Design, Synthesis, and Structure—Activity Relationship Studies” (Pharmaceuticals, 2023):

Key:
HCT116 cells [1] = experiment: Mitotic arrest / mitotic index by phase-contrast microscopy; format: cell-based, human; details: HCT116, 24 h
Experimental: Disruption of cell cycle progression is considered one of the most common cytotoxic mechanisms of anticancer drugs. Moreover, the antimitotic effect of BP-M345 (2) has been previously reported. Therefore, compounds 6, 7, and 13 were tested for their capability to induce cell cycle arrest. HCT116 cells were exposed for 24 h to the compounds and then analyzed using phase contrast microscopy for morphological changes. Untreated and dimethyl sulfoxide (DMSO; solvent)-treated cells were used as negative controls. Cell exposure to nocodazole, an antimitotic agent, was used as a positive control. […] We thus calculated the mitotic index (MI), and observed a significant increase in MI in 7-treated cells (22.76 ± 4.30%) compared to the untreated (12.68 ± 1.98%) or DMSO-treated (12.81 ± 1.45%) (Figure 4c).
A total of 1.2 × 10^5 HCT-116 cells were grown in six-well dishes and treated for 24 h with 3.26 µM of compound 7. Cells treated with 1 µM nocodazole were used as a positive control for antimitotic activity. Untreated cells and cells treated with DMSO were included to exclude the cytotoxicity of the compound solvent. Mitotic index, and the percentage of mitotic cells over the total cell population were determined via cell-rounding under phase-contrast microscopy from at least ten random microscope fields.
For phase contrast microscopy images, a Nikon TE 2000-U microscope (Nikon, Amsterdam, The Netherlands) with a 10× objective was used, coupled to a DXM1200F digital camera with Nikon ACT-1 software (Melville, NY, USA). For fluorescence images, an Axio Observer Z.1 SD microscope (Carl Zeiss, Germany) was used, coupled to an AxioCam MR3, with the Plan Apochromatic 63×/NA 1.4 objective. The images were processed using ImageJ, version 1.51.

HCT116 cells [2] = experiment: Apoptosis detection via flow cytometry (Annexin V-FITC/PI); format: cell-based, human; details: HCT116, 48 h, vs untreated or DMSO
Experimental: Double labeling with annexin V-FITC and propidium iodide dyes was used to detect cells going through apoptotic events, using a flow cytometer in order to obtain insights into the mechanism by which compounds 6, 7, and 13 generate antiproliferative activity against colorectal carcinoma cells. For that, HCT116 cells were exposed to each compound for 48 h.
To evaluate apoptotic cell death, the “Annexin V-FITC Apoptosis Detection Kit” (eBioscience, Vienna, Austria) was used according to the manufacturer’s instructions. Briefly, 1.2 × 10^5 cells/well were seeded into 6-well plates, and 24 h later, cells were treated with compounds 6, 7, and 13. After 48 h, floating and adherent cells were collected, pelleted via centrifugation (1000 rpm, 5 min), and suspended in binding buffer. Annexin V-FITC was added and incubated for 10 min, protected from light. Cells were washed and resuspended in binding buffer, and 20 μg/mL of propidium iodide (PI) was added. Fluorescence was assessed using the BD Accuri™ C6 Plus flow cytometer (BD Biosciences, Qume Drive, San Jose, CA, USA), and the data were analyzed with the BD Accuri TM C6 Plus software (version 1.0.27.1, San Jose, CA, USA). At least 20,000 events per sample were collected.

CCCc1c(OCCNC(=O)/C=C/c2cc(OC)c(OC)c(OC)c2)ccc(C(=O)/C=C/c2cc(OC)c(OC)c(OC)c2)c1O [Compound 7, (E)-N-(2-(3-hydroxy-2-propyl-4-((E)-3-(3,4,5-trimethoxyphenyl)acryloyl)phenoxy)ethyl)-3-(3,4,5-trimethoxyphenyl)acrylamide]
Mitotic index (MI) (HCT116 cells [1]; at GI50 (3.26 µM), untreated 12.68 ± 1.98%): 22.76 ± 4.30% | Accumulation of bright and rounded (mitotic) cells (HCT116 cells [1]; phase contrast microscopy): accumulation of bright and rounded cells | Apoptosis induction (Annexin V-positive cells) (HCT116 cells [2]): induces apoptotic tumor cell death
